Laboratory results reported in PubChem BioAssay (NCI).
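These data come from cells grown in 96-well plates and exposed to compound for 48 hours at five concentrations. TGI is the concentration that stops growth completely.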

What was measured:
Assay in all cases: DTP human tumour cell line panel, 48 h
HCT-15 colon = system: HCT-15 colon
HL-60(TB) leukemia = system: HL-60(TB) leukemia
SK-MEL-2 melanoma = system: SK-MEL-2 melanoma
MCF7 breast = system: MCF7 breast
SK-MEL-5 melanoma = system: SK-MEL-5 melanoma
786-0 renal = system: 786-0 renal
TK-10 renal = system: TK-10 renal
SNB-19 CNS = system: SNB-19 CNS
PC-3 prostate = system: PC-3 prostate
MOLT-4 leukemia = system: MOLT-4 leukemia
HT29 colon = system: HT29 colon
NCI/ADR-RES ovarian = system: NCI/ADR-RES ovarian
CCRF-CEM leukemia = system: CCRF-CEM leukemia
ACHN renal = system: ACHN renal
IGROV1 ovarian = system: IGROV1 ovarian
SK-MEL-28 melanoma = system: SK-MEL-28 melanoma
UACC-62 melanoma = system: UACC-62 melanoma
A498 renal = system: A498 renal
M14 melanoma = system: M14 melanoma
K-562 leukemia = system: K-562 leukemia
OVCAR-5 ovarian = system: OVCAR-5 ovarian
SF-268 CNS = system: SF-268 CNS
RPMI-8226 leukemia = system: RPMI-8226 leukemia
NCI-H23 lung = system: NCI-H23 lung
COLO 205 colon = system: COLO 205 colon
OVCAR-4 ovarian = system: OVCAR-4 ovarian
HCT-116 colon = system: HCT-116 colon
NCI-H522 lung = system: NCI-H522 lung
A549 NSCLC = system: A549 NSCLC
LOX IMVI melanoma = system: LOX IMVI melanoma
EKVX NSCLC = system: EKVX NSCLC
BT-549 breast = system: BT-549 breast
MDA-MB-231 breast = system: MDA-MB-231 breast
MALME-3M melanoma = system: MALME-3M melanoma
SK-OV-3 ovarian = system: SK-OV-3 ovarian
CAKI-1 renal = system: CAKI-1 renal
HS 578T breast = system: HS 578T breast
T-47D breast = system: T-47D breast
SR leukemia = system: SR leukemia
MDA-MB-435 = system: MDA-MB-435
RXF 393 renal = system: RXF 393 renal
HOP-92 NSCLC = system: HOP-92 NSCLC
UACC-257 melanoma = system: UACC-257 melanoma
U251 CNS = system: U251 CNS
DU-145 prostate = system: DU-145 prostate
KM12 colon = system: KM12 colon
SN12C renal = system: SN12C renal
SW-620 colon = system: SW-620 colon
HCC-2998 colon = system: HCC-2998 colon
NCI-H460 lung = system: NCI-H460 lung
SF-295 CNS = system: SF-295 CNS
MDA-N = system: MDA-N
OVCAR-3 ovarian = system: OVCAR-3 ovarian
NCI-H226 lung = system: NCI-H226 lung
OVCAR-8 ovarian = system: OVCAR-8 ovarian
SNB-75 CNS = system: SNB-75 CNS
SF-539 CNS = system: SF-539 CNS
UO-31 renal = system: UO-31 renal

With COC(=O)C1=C(O)c2ccc(Cl)cc2S(=O)(=O)N1C the TGI (HCT-15 colon) was greater than 100 µM, the TGI (HL-60(TB) leukemia) was greater than 100 µM and the TGI (SK-MEL-2 melanoma) was greater than 100 µM. For the same compound, the TGI (MCF7 breast) was greater than 100 µM, the TGI (SK-MEL-5 melanoma) was greater than 100 µM and the TGI (786-0 renal) was greater than 100 µM. It also gave a TGI (TK-10 renal) greater than 100 µM, a TGI (SNB-19 CNS) greater than 100 µM and a TGI (PC-3 prostate) greater than 100 µM. It also gave a TGI (MOLT-4 leukemia) greater than 100 µM, a TGI (HT29 colon) greater than 100 µM and a TGI (NCI/ADR-RES ovarian) of 95 µM. It also gave a TGI (CCRF-CEM leukemia) greater than 100 µM, a TGI (ACHN renal) greater than 100 µM and a TGI (IGROV1 ovarian) greater than 100 µM. For the same compound, the TGI (SK-MEL-28 melanoma) was greater than 100 µM, the TGI (UACC-62 melanoma) was greater than 100 µM and the TGI (A498 renal) was greater than 100 µM. The TGI (M14 melanoma) was greater than 100 µM, the TGI (K-562 leukemia) was greater than 100 µM and the TGI (OVCAR-5 ovarian) was greater than 100 µM. For the same compound, the TGI (SF-268 CNS) was greater than 100 µM, the TGI (RPMI-8226 leukemia) was greater than 100 µM and the TGI (NCI-H23 lung) was greater than 100 µM. The TGI (COLO 205 colon) was greater than 100 µM, the TGI (OVCAR-4 ovarian) was greater than 100 µM and the TGI (HCT-116 colon) was greater than 100 µM. The TGI (NCI-H522 lung) was greater than 100 µM, the TGI (A549 NSCLC) was greater than 100 µM and the TGI (LOX IMVI melanoma) was greater than 100 µM. For the same compound, the TGI (EKVX NSCLC) was greater than 100 µM, the TGI (BT-549 breast) was greater than 100 µM and the TGI (MDA-MB-231 breast) was greater than 100 µM. The TGI (MALME-3M melanoma) was greater than 100 µM, the TGI (SK-OV-3 ovarian) was greater than 100 µM and the TGI (CAKI-1 renal) was greater than 100 µM. It also gave a TGI (HS 578T breast) greater than 100 µM, a TGI (T-47D breast) greater than 100 µM and a TGI (SR leukemia) greater than 100 µM. It also gave a TGI (MDA-MB-435) greater than 100 µM, a TGI (RXF 393 renal) greater than 100 µM and a TGI (HOP-92 NSCLC) greater than 100 µM. The TGI (UACC-257 melanoma) was greater than 100 µM, the TGI (U251 CNS) was greater than 100 µM and the TGI (DU-145 prostate) was greater than 100 µM. The TGI (KM12 colon) was greater than 100 µM, the TGI (SN12C renal) was greater than 100 µM and the TGI (SW-620 colon) was greater than 100 µM. For the same compound, the TGI (HCC-2998 colon) was greater than 100 µM, the TGI (NCI-H460 lung) was greater than 100 µM and the TGI (SF-295 CNS) was greater than 100 µM. For the same compound, the TGI (MDA-N) was greater than 100 µM.
O=C(/C=C/C=C/c1ccccc1)c1ccccc1 showed a TGI (HCT-15 colon) of 28.8 µM, a TGI (HL-60(TB) leukemia) of 28.6 µM and a TGI (SK-MEL-2 melanoma) of 45.5 µM. It also gave a TGI (MCF7 breast) of 42.9 µM, a TGI (SK-MEL-5 melanoma) of 30.2 µM and a TGI (786-0 renal) of 27.4 µM. The TGI (TK-10 renal) was 42.3 µM, the TGI (OVCAR-3 ovarian) was 34.3 µM and the TGI (SNB-19 CNS) was 44.4 µM. It also gave a TGI (PC-3 prostate) of 37.2 µM, a TGI (MOLT-4 leukemia) of 49.4 µM and a TGI (NCI-H226 lung) of 34.3 µM. The TGI (HT29 colon) was 30.8 µM, the TGI (NCI/ADR-RES ovarian) was 27.1 µM and the TGI (OVCAR-8 ovarian) was 26.1 µM. It also gave a TGI (IGROV1 ovarian) of 31.2 µM, a TGI (SK-MEL-28 melanoma) of 31.3 µM and a TGI (UACC-62 melanoma) of 33 µM. For the same compound, the TGI (A498 renal) was 31.5 µM, the TGI (M14 melanoma) was 33.6 µM and the TGI (K-562 leukemia) was 66.2 µM. For the same compound, the TGI (OVCAR-5 ovarian) was 28.8 µM, the TGI (SNB-75 CNS) was 41.9 µM and the TGI (SF-268 CNS) was 38.2 µM. It also gave a TGI (RPMI-8226 leukemia) of 72.5 µM, a TGI (COLO 205 colon) of 31.5 µM and a TGI (OVCAR-4 ovarian) of 39.7 µM. The TGI (HCT-116 colon) was 31.4 µM, the TGI (NCI-H522 lung) was 20.2 µM and the TGI (A549 NSCLC) was 42.7 µM. For the same compound, the TGI (LOX IMVI melanoma) was 29.3 µM, the TGI (EKVX NSCLC) was 28.6 µM and the TGI (BT-549 breast) was 43.5 µM. For the same compound, the TGI (MDA-MB-231 breast) was 37.8 µM, the TGI (SF-539 CNS) was 32.8 µM and the TGI (MALME-3M melanoma) was 21.6 µM. It also gave a TGI (SK-OV-3 ovarian) of 70.4 µM, a TGI (CAKI-1 renal) of 31.4 µM and a TGI (HS 578T breast) of 55.4 µM. The TGI (T-47D breast) was 48.2 µM, the TGI (SR leukemia) was 34.5 µM and the TGI (MDA-MB-435) was 34.2 µM. The TGI (RXF 393 renal) was 37.3 µM, the TGI (HOP-92 NSCLC) was 39.1 µM and the TGI (UACC-257 melanoma) was 34.2 µM. It also gave a TGI (UO-31 renal) of 38.2 µM, a TGI (U251 CNS) of 27 µM and a TGI (DU-145 prostate) of 40.1 µM. For the same compound, the TGI (KM12 colon) was 27.3 µM, the TGI (SN12C renal) was 29.7 µM and the TGI (SW-620 colon) was 30.3 µM. For the same compound, the TGI (HCC-2998 colon) was 31.7 µM, the TGI (NCI-H460 lung) was 49.5 µM and the TGI (MDA-N) was 30.4 µM.
